# Experimental data taken from PubChem BioAssay AID256 (DTP/NCI, 2004).
# Where “and” joins values, the source holds several entries; their conditions need not be identical. Equal values may be shown once. Toxic doses and inconclusive results are not listed.
# System: CD2F1 mice, L1210 leukemia ip, survival T/C
# Assay: NCI In Vivo Anticancer Drug Screen. Data for tumor model L1210 Leukemia (intraperitoneal) in CD2F1 (CDF1) mice
# Conditions: higher = longer survival
# In short: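 Activity against a transplanted murine tumor was judged by comparing the compound group with a vehicle group. The outcome in the treated animals was divided by that in the controls.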
# [1] = endpoint: mean survival time, dose: 25.0 mg/kg/injection, schedule: Q01DX005 (ip), vehicle: water
# [2] = endpoint: mean survival time, dose: 50.0 mg/kg/injection, schedule: Q01DX005 (ip), vehicle: water
# [3] = endpoint: mean survival time, dose: 100.0 mg/kg/injection, schedule: Q01DX005 (ip), vehicle: water
# [4] = endpoint: mean survival time, dose: 200.0 mg/kg/injection, schedule: Q01DX005 (ip), vehicle: water
# [5] = endpoint: mean survival time, dose: 12.5 mg/kg/injection, schedule: Q01DX009 (ip), vehicle: saline with Tween-80
# [6] = endpoint: mean survival time, dose: 25.0 mg/kg/injection, schedule: Q01DX009 (ip), vehicle: saline with Tween-80
# [7] = endpoint: mean survival time, dose: 50.0 mg/kg/injection, schedule: Q01DX009 (ip), vehicle: saline with Tween-80
# [8] = endpoint: mean survival time, dose: 100.0 mg/kg/injection, schedule: Q01DX009 (ip), vehicle: saline with Tween-80
# [9] = endpoint: mean survival time, dose: 200.0 mg/kg/injection, schedule: Q01DX009 (ip), vehicle: saline with Tween-80
# [10] = endpoint: mean survival time, dose: 100.0 mg/kg/injection, schedule: Q01DX009 (ip), vehicle: saline
# [11] = endpoint: mean survival time, dose: 100.0 mg/kg/injection, schedule: Q04DX003 (ip), vehicle: saline
# [12] = endpoint: mean survival time, dose: 100.0 mg/kg/injection, schedule: Q04DX003 (ip), vehicle: saline with Tween-80
structure (smiles),measurement,setting,value
CC(C)=CCC(OC(=O)C=C(C)C)c1cc(O)c2c(O)ccc(O)c2c1O.[Pt] (configuration not stated),T/C,"endpoint: mean survival time, dose: 1.56 mg/kg/injection, schedule: Q04DX003 (ip), vehicle: distilled water + Tween-80",104 % of control
same,T/C,"endpoint: mean survival time, dose: 3.12 mg/kg/injection, schedule: Q04DX003 (ip), vehicle: distilled water + Tween-80",104 % of control
same,T/C,"endpoint: mean survival time, dose: 6.25 mg/kg/injection, schedule: Q04DX003 (ip), vehicle: distilled water + Tween-80",101 % of control
same,T/C,"endpoint: mean survival time, dose: 12.5 mg/kg/injection, schedule: Q04DX003 (ip), vehicle: distilled water + Tween-80",101 % of control
same,T/C,"endpoint: mean survival time, dose: 25.0 mg/kg/injection, schedule: Q04DX003 (ip), vehicle: distilled water + Tween-80",95 % of control
same,T/C,"endpoint: mean survival time, dose: 50.0 mg/kg/injection, schedule: Q04DX003 (ip), vehicle: distilled water + Tween-80",89 % of control
same,T/C,"endpoint: mean survival time, dose: 100.0 mg/kg/injection, schedule: Q04DX003 (ip), vehicle: distilled water + Tween-80",92 % of control
CC(O)CNCCNc1ccc(NCCNCC(C)O)c2c1C(=O)c1c(O)ccc(O)c1C2=O (configuration not stated),T/C,"endpoint: mean survival time, dose: 0.25 mg/kg/injection, schedule: Q01DX005 (ip), vehicle: water",123 % of control
same,T/C,"endpoint: mean survival time, dose: 0.5 mg/kg/injection, schedule: Q01DX005 (ip), vehicle: water",123 % of control
same,T/C,"endpoint: mean survival time, dose: 8.0 mg/kg/injection, schedule: Q01DX005 (ip), vehicle: water",165 % of control
Cc1ccc(S(=O)(=O)OC2(c3cc(C(F)(F)F)cc(C(F)(F)F)c3)C3CCC2CC3)cc1 (configuration not stated),T/C,"endpoint: mean survival time, dose: 37.5 mg/kg/injection, schedule: Q04DX002 (ip), vehicle: saline with Tween-80",102 % of control
same,T/C,"endpoint: mean survival time, dose: 75.0 mg/kg/injection, schedule: Q04DX002 (ip), vehicle: saline with Tween-80",94 % of control
same,T/C,"endpoint: mean survival time, dose: 150.0 mg/kg/injection, schedule: Q04DX002 (ip), vehicle: saline with Tween-80",98 % of control
same,T/C,"endpoint: mean survival time, dose: 300.0 mg/kg/injection, schedule: Q04DX002 (ip), vehicle: saline with Tween-80",102 % of control
Nc1ncnc2sc3c(c12)CCCC3,T/C,"endpoint: mean survival time, dose: 50.0 mg/kg/injection, schedule: Q04DX003 (ip), vehicle: Klucel (hydroxypropylcellulose) (HPC)",96 % of control
same,T/C,"endpoint: mean survival time, dose: 100.0 mg/kg/injection, schedule: Q04DX003 (ip), vehicle: Klucel (hydroxypropylcellulose) (HPC)",100 % of control
same,T/C,"endpoint: mean survival time, dose: 200.0 mg/kg/injection, schedule: Q04DX003 (ip), vehicle: Klucel (hydroxypropylcellulose) (HPC)",91 % of control
NC(=O)c1ncnc2c1ncn2C1OC(CO)C(O)C1O (configuration not stated),T/C,"endpoint: mean survival time, dose: 12.5 mg/kg/injection, schedule: Q01DX005 (ip), vehicle: water",104 % of control and 102 % of control
same,T/C,[1],104 % of control and 97 % of control
same,T/C,[2],106 % of control and 96 % of control
same,T/C,[3],110 % of control and 100 % of control
same,T/C,[4],110 % of control and 96 % of control
Oc1ccc(I)c2cccnc12,T/C,[5],98 % of control
same,T/C,[6],98 % of control
same,T/C,"endpoint: mean survival time, dose: 45.0 mg/kg/injection, schedule: Q01DX009 (ip), vehicle: saline",97 % of control
same,T/C,[7],98 % of control
same,T/C,"endpoint: mean survival time, dose: 90.0 mg/kg/injection, schedule: Q01DX009 (ip), vehicle: saline",108 % of control
same,T/C,[8],98 % of control
same,T/C,"endpoint: mean survival time, dose: 180.0 mg/kg/injection, schedule: Q01DX009 (ip), vehicle: saline",112 % of control
same,T/C,[9],104 % of control
CCN(CC)CCOC(=O)C(c1ccccc1)C(C)(O)CC (configuration not stated),T/C,"endpoint: mean survival time, dose: 25.0 mg/kg/injection, schedule: Q01DX009 (ip), vehicle: saline",101 % of control
same,T/C,"endpoint: mean survival time, dose: 50.0 mg/kg/injection, schedule: Q01DX009 (ip), vehicle: saline",87 % of control
same,T/C,[10],104 % of control
same,T/C,[11],88 % of control
CN(C)N=Nc1ccc(NC=O)cc1,T/C,"endpoint: mean survival time, dose: 4.68 mg/kg/injection, schedule: Q01DX009 (ip), vehicle: Klucel (hydroxypropylcellulose) (HPC)",104 % of control
same,T/C,"endpoint: mean survival time, dose: 9.37 mg/kg/injection, schedule: Q01DX009 (ip), vehicle: Klucel (hydroxypropylcellulose) (HPC)",115 % of control and 110 % of control
Nc1ncnc2c1c1c(=O)[nH]c(=S)[nH]c1n2C1OC(CO)C(O)C1O (configuration not stated),T/C,[1],94 % of control
same,T/C,[2],100 % of control
same,T/C,[3],103 % of control
same,T/C,[4],105 % of control
same,T/C,"endpoint: mean survival time, dose: 400.0 mg/kg/injection, schedule: Q01DX005 (ip), vehicle: water",114 % of control
N#CC1C(=O)c2ccccc2C1=O,T/C,"endpoint: mean survival time, dose: 25.0 mg/kg/injection, schedule: Q04DX003 (ip), vehicle: saline with Tween-80",91 % of control
same,T/C,"endpoint: mean survival time, dose: 50.0 mg/kg/injection, schedule: Q04DX003 (ip), vehicle: saline with Tween-80",93 % of control
same,T/C,[12],93 % of control
CC(C)C1OCC(C)(C)C(C(C)C)O1 (configuration not stated),T/C,"endpoint: mean survival time, dose: 100.0 mg/kg/injection, schedule: Q04DX002 (ip), vehicle: saline",107 % of control
same,T/C,"endpoint: mean survival time, dose: 200.0 mg/kg/injection, schedule: Q04DX002 (ip), vehicle: saline",110 % of control
same,T/C,"endpoint: mean survival time, dose: 400.0 mg/kg/injection, schedule: Q04DX002 (ip), vehicle: saline",96 % of control
COc1ccccc1CC(C)N (configuration not stated),T/C,"endpoint: mean survival time, dose: 20.0 mg/kg/injection, schedule: Q04DX003 (ip), vehicle: Klucel (hydroxypropylcellulose) (HPC)",90 % of control
same,T/C,"endpoint: mean survival time, dose: 40.0 mg/kg/injection, schedule: Q04DX003 (ip), vehicle: Klucel (hydroxypropylcellulose) (HPC)",91 % of control
same,T/C,"endpoint: mean survival time, dose: 80.0 mg/kg/injection, schedule: Q04DX003 (ip), vehicle: Klucel (hydroxypropylcellulose) (HPC)",96 % of control
O=c1c2ncn(C3OC(CO)C(O)C3O)c2nc[n]1[Hg][c]1ccccc1 (configuration not stated),T/C,"endpoint: median survival time, dose: 0.79 mg/kg/injection, schedule: Q01DX005 (ip), vehicle: saline",103 % of control
same,T/C,"endpoint: median survival time, dose: 1.56 mg/kg/injection, schedule: Q01DX005 (ip), vehicle: saline",111 % of control
same,T/C,"endpoint: median survival time, dose: 3.12 mg/kg/injection, schedule: Q01DX005 (ip), vehicle: saline",115 % of control
same,T/C,"endpoint: median survival time, dose: 6.25 mg/kg/injection, schedule: Q01DX005 (ip), vehicle: saline",105 % of control
same,T/C,"endpoint: median survival time, dose: 12.5 mg/kg/injection, schedule: Q01DX005 (ip), vehicle: saline",112 % of control
O=[N+]([O-])c1ccccc1-c1n[nH]c2ccccc12,T/C,"endpoint: mean survival time, dose: 25.0 mg/kg/injection, schedule: Q04DX002 (ip), vehicle: saline with Tween-80",113 % of control
same,T/C,"endpoint: mean survival time, dose: 50.0 mg/kg/injection, schedule: Q04DX002 (ip), vehicle: saline with Tween-80",106 % of control
same,T/C,"endpoint: mean survival time, dose: 100.0 mg/kg/injection, schedule: Q04DX002 (ip), vehicle: saline with Tween-80",106 % of control
same,T/C,"endpoint: mean survival time, dose: 200.0 mg/kg/injection, schedule: Q04DX002 (ip), vehicle: saline with Tween-80",110 % of control
C=CCOC(=N)C(Cl)(Cl)Cl,T/C,[7],106 % of control
same,T/C,[8],95 % of control
N\C([S-])=N/N=C\C(=N/N=C(\N)[S-])C(O)C(O)C(O)CO.[Ni+2] (configuration not stated),T/C,"endpoint: mean survival time, dose: 80.5 mg/kg/injection, schedule: Q01DX009 (ip), vehicle: saline with Tween-80",102 % of control
same,T/C,"endpoint: mean survival time, dose: 161.0 mg/kg/injection, schedule: Q01DX009 (ip), vehicle: saline with Tween-80",95 % of control
COc1cc(NS(C)(=O)=O)ccc1Nc1c2ccc(Cl)cc2nc2c(OC)cccc12,T/C,[5],106 % of control
same,T/C,"endpoint: mean survival time, dose: 66.0 mg/kg/injection, schedule: Q04DX003 (ip), vehicle: saline with Tween-80",238 % of control
same,T/C,"endpoint: mean survival time, dose: 100.0 mg/kg/injection, schedule: Q04DX003 (ip), vehicle: saline sonified",168 % of control
same,T/C,[12],273 % of control
same,T/C,"endpoint: mean survival time, dose: 150.0 mg/kg/injection, schedule: Q04DX003 (ip), vehicle: saline with Tween-80",88 % of control
same,T/C,"endpoint: mean survival time, dose: 200.0 mg/kg/injection, schedule: Q04DX003 (ip), vehicle: saline sonified",154 % of control
CN(CC#CCOc1ccc(Br)cc1)c1ccccc1,T/C,[8],103 % of control
same,T/C,[9],100 % of control
same,T/C,"endpoint: mean survival time, dose: 400.0 mg/kg/injection, schedule: Q01DX009 (ip), vehicle: saline with Tween-80",97 % of control
COc1cc(OC)c(NC(=O)OCCOc2cc(C)c(Cl)c(C)c2)cc1Cl,T/C,[5],95 % of control
same,T/C,[6],95 % of control
same,T/C,[7],98 % of control
same,T/C,[8],88 % of control
Nc1cc(S(=O)(=O)O)cc2ccc(S(=O)(=O)O)cc12,T/C,[10],106 % of control
same,T/C,[11],96 % of control
same,T/C,"endpoint: mean survival time, dose: 200.0 mg/kg/injection, schedule: Q01DX009 (ip), vehicle: saline",95 % of control
same,T/C,"endpoint: mean survival time, dose: 200.0 mg/kg/injection, schedule: Q04DX003 (ip), vehicle: saline",92 % of control
same,T/C,"endpoint: mean survival time, dose: 400.0 mg/kg/injection, schedule: Q01DX009 (ip), vehicle: saline",92 % of control
same,T/C,"endpoint: mean survival time, dose: 400.0 mg/kg/injection, schedule: Q04DX003 (ip), vehicle: saline",117 % of control
